SMILES strings stand for the structures. Where two headings read alike, the source gives them in different places.

The subject of series [1] is T-47D. In words: Caspase cascade activation / apoptosis induction assay (N-(Ac-DEVD)-N'-ethoxycarbonyl-R110 substrate) in T-47D cells. To be noted: for Caspase activity (Ratio): ratio of net RFU to control. In kind it is cell-based, Human. How it is done: (§1) Human breast cancer cell lines T-47D and ZR-75-1 were grown according to media component mixtures designated by American Type Culture Collection+10% FCS (Invitrogen Corporation), in a 5% CO2-95% humidity incubator at 37° C. T-47D and ZR-75-1 cells were maintained at a cell density between 30 and 80% confluency and for HL-60 at a cell density of 0.1 to 0.6×10^6 cells/ml. Cells were harvested at 600×g and resuspended at 0.65×10^6 cells/mL into appropriate media+10% FCS. An aliquot of 45 μl of cells was added to a well of a 96-well microtiter plate containing 5 μl of a 10% DMSO in RPMI-1640 media solution containing 1.6 to 100 μM of gambogic acid or other test compound (0.16 to 10 μM final). An aliquot of 45 μl of cells was added to a well of a 96-well microtiter plate containing […] of a 10% DMSO in RPMI-1640 media solution without test compound as the control sample. The samples were mixed by agitation and then incubated at 37° C. for 24 h in a 5% CO2-95% humidity incubator. After incubation, the samples were removed from the incubator and 50 μl of a solution containing 20 μM of N-(Ac-DEVD)-N′-ethoxycarbonyl-R110 fluorogenic substrate SEQ ID NO:1 (Cytovia, Inc.; U.S. Pat. No. 6,335,429), 20% sucrose (Sigma), 20 mM DTT (Sigma), 200 mM NaCl (Sigma), 40 mM Na PIPES buffer pH 7.2 (Sigma), and 500 μg/mL lysolecithin (Calbiochem) was added. The samples were mixed by agitation and incubated at room temperature. Using a fluorescent plate reader (Model 1420 Wallac Instruments), an initial reading (T=0) was made approximately 1–2 min after addition of the substrate solution, employing excitation at 485 nm and emission at 530 nm, to determine the background fluorescence of the control sample. After approximately 3 h of incubation, the samples were read for fluorescence as above (T=3 h).
(§2) The Relative Fluorescence Unit values (RFU) were used to calculate the sample readings as follows: RFU(T=3h)−Control RFU(T=0)=Net RFU(T=3h)
(§3) The activity of caspase cascade activation was determined by the ratio of the net RFU value for derivatives of gambogic acid to that of control samples. The EC50 (nM) was determined by a sigmoidal dose-response calculation (Prism 2.0, GraphPad Software Inc.).
Methyl 9,10-dihydro-10-morpholinyl-gambogate and gambogic acid were assayed as described in Example 28 in T47D cells. The samples of cells and testing compound were incubated for 5 h and 24 h, respectively. Table II summarizes the caspase activity (Ratio) and potency (EC50) of methyl 9,10-dihydro-10-morpholinyl-gambogate (compound B) in the 5 h and 24 h assays, in comparison with that of gambogic acid (compound A).

Series [2] has as its system ZR-75-1. In words: Caspase cascade activation / apoptosis induction assay (N-(Ac-DEVD)-N'-ethoxycarbonyl-R110 substrate) in ZR-75-1 cells. In kind it is cell-based, Human. To be noted: ZR-75-1, 24 h incubation; for Caspase activity (Ratio): ratio of net RFU to control; for EC50: read-out: Caspase potency EC50. The protocol:
as §1, §2, §3

For series [3], the system named is ICR (CD-1) mice. Kind of series: Maximum tolerated dose (MTD) in mice, I.V. In kind it is in vivo. Particulars: mice. How it is done: For acute toxicity studies, 3 ICR (CD-1) mice were used per each dose group. Animals were given a single bolus injection in the tail vein with approximately 100 μl volume of compound formulation or vehicle formulation. Mice body weights were measured daily along with daily observation for clinical abnormalities. The maximum tolerated dose (MTD) was defined as the dose that results in less than 10% decrease in body weight with no clinical abnormalities.
For multiple dose studies, the animals were dosed once a day for 5 days.
Table IV summarizes the MTD of gambogic acid and methyl 9,10-dihydro-10-morpholinyl-gambogate in mice by I.V. administration.

Series [4] is described as follows: Pharmacokinetic studies in mice (plasma, LC/MS/MS). Format: in vivo, ICR mice. How it is done: ICR mice were administered a single dose of drug into the tail vein. At each time point, 3 animals were sacrificed and the blood was withdrawn by cardiac puncture. The blood cells were spun down and the plasma was collected and frozen immediately in liquid nitrogen. For sample processing, the plasma was thawed and extraction solvent was added along with an internal standard to assess recoveries. The samples were vortexed followed by centrifugation, and the extraction solution was collected and subjected to LC/MS/MS analysis to identify and quantitate the compound plasma concentration. The levels of compound from the three animals at each time point were averaged and the pharmacokinetic parameters calculated using WinNonLin program. Table V summarized the major PK parameters.

For series [5], the system named is ZR75-1 (Breast cancer). In words: Efficacy in human tumor xenograft mouse model ZR75-1. Format: in vivo, human tumor in CD1 nu/nu mice. Particulars: ZR75-1 xenograft, 5 mg/kg, every other day, I.V. The protocol:
(§4) CD1 nu/nu mice were used. Viable tumor bits of transplantable human xenografts approximately 50 mg of trocar or cultured human tumor cells (nx106 cells?) were implanted subcutaneously into the flank region of mice and tumors were allowed to grow to the desired average size of 100 mg. The mice were measured for tumor size and those within the accepted tumor range of 75–125 mg, were randomized into control and treatment groups with 8–9 mice per group. Treatment was initiated on these groups which have an average starting tumor size of 100 mg. The control group was injected with the vehicle used to dissolve the drug. Injections were I.V. via the tail vein. Tumor measurements were taken every other day along with weights of animals and all animals were observed daily for survival. Tumor size was calculated by the equation of: Tumor volume=(length×width^2)/2.
(In general: In xenograft studies the graft and the host belong to different species.)

Series [6] has as its system human tumor xenograft models. In words: Efficacy studies in human tumor xenograft models (text summary, model not named). Format: in vivo, human tumor in nu/nu mice. How it is done: as §4
Series [7] deals with HeLa cells. Particulars: cited from earlier work.
In series [8] the test system is HEL cells. To be noted: cited from earlier work.
In series [9] the test system is KB cell line. To be noted: cited from earlier work.
Series [10] concerns KB-V1 cell line. Particulars: cited from earlier work.
The nature of series [11]: Conversion of methyl 9,10-dihydro-10-morpholinyl-gambogate to methyl gambogate in biological media (HPLC). Format: physicochemical. Particulars: solution of compound B 5 mg/ml in 87.5% RPMI 1640, 37° C., HPLC peak area. How it is done: A solution of methyl 9,10-dihydro-10-morpholinyl-gambogate in 87.5% RPMI 1640 biological Media (Invitrogen Corporation, Carlsbad, Calif.), 5.6% EtOH, 1.3% DMSO, and 5.6% Cremophor EL at a concentration of 5 mg/ml was stored at 37° C. The amount of methyl 9,10-dihydro-10-morpholinyl-gambogate (compound B) and methyl gambogate (compound C) was measured by integration of the peak area. The HPLC was run in the Beckman System Gold with 32 Karate software under the following conditions: […]

The mark [12] stands for this setting: T-47D, 24 h incubation, read-out: Caspase potency EC50.

One may read the EC50 as the concentration giving half of the maximal effect. With `CC(C)=CCCC1(C)C=Cc2c(O)c3c(c(CC=C(C)C)c2O1)OC12C(C3=O)C(N3CCOCC3)C3CC1C(C)(C)OC2(C/C=C(/C)C(=O)N1CCOCC1)C3=O` (stereo not shown) [Example 10, 9,10-Dihydro-10-morpholinyl-gambogyl Morpholine], the “Caspase activity (Ratio)” value in [1] (T-47D, 24 h incubation) was found to be 23; in [2], 7.0. Further, the results for the EC50 in series [1] (setting [12]) and in series [2] were 0.592 µM and 1.38 µM, respectively.
The corresponding values for `CC(C)=CCCC1(C)C=Cc2c(O)c3c(c(CC=C(C)C)c2O1)OC12C(C3=O)C(OCCN(C)C)C3CC1C(C)(C)OC2(C/C=C(/C)C(=O)N1CCN(C)CC1)C3=O` (stereo not shown) [Example 9, 9,10-Dihydro-10-(2-dimethylaminoethoxy)-gambogyl (N-Methylpiperazine)] are 15, 16, 1.96 µM and 5.21 µM.
For the compound `CC(C)=CCC[C@]1(C)C=Cc2c(O)c3c(c(CC=C(C)C)c2O1)O[C@]12C(=C[C@@H]4C[C@H]1C(C)(C)O[C@@]2(C/C=C(/C)C(=O)O)C4=O)C3=O` [Compound A, Gambogic acid], in series [1] (T47D cells, 5 h assay), the “Activity in the caspase activation / apoptosis induction assay (in words), 5 h” value is “active” and the “Caspase activity (Ratio), 5 h” value turned out to be 29.5. Besides, the EC50 in series [1] (T47D cells, 5 h assay, read-out: Caspase potency EC50, 5 h) was 1.74 µM. Besides, in series [1] (T47D cells, 24 h assay), the “Activity in the caspase activation / apoptosis induction assay (in words), 24 h” value was “active” and the “Caspase activity (Ratio), 24 h” value is reported as 12.1. For the same compound, the half-maximal effective concentration (EC50) in series [1] (T47D cells, 24 h assay, read-out: Caspase potency EC50, 24 h) is 0.7 µM. In addition, the “Multiple Dose MTD” value in series [3] (I.V., once a day, 5 doses) was 5 mg/kg. Besides, in series [3] (tail vein injection), the Injection site toxicity entry is “evidence of injection site toxicity, such as tail edema”. In addition, the “T1/2, Terminal half-life” value in series [4] (mice, single I.V. dose 5 mg/kg) is 4.8 h. Further, in series [4] (mouse, in vivo, iv, 5 mg/kg), the “AUC (0-inf), Area under the curve” value was 2,700 ng-h/ml; the “CL, Clearance” value was 30.7 mL/min/kg; the “Vss, Vol. of distribution” value was found to be 2.9 L/kg. In series [5], the “% Tumor reduction” value was determined as 20%. For the same compound, the “Best efficacy, tumor growth inhibition” value in series [6] (human tumor cells s.c. in nu/nu mice, at doses that were toxic, not statistically significant) was “approximately 20%”. The “Efficacy (in words)” value in series [6] (summary of Table VI, gambogic acid at its maximal tolerable dose) is “did not produce significant efficacy”. Further, the Cytotoxicity entry in series [7] is on record as “cytotoxic”. Besides, in [8], the Cytotoxicity entry was “cytotoxic”. Moreover, the Cytotoxicity entry in [9] is recorded as “cytotoxic”. The Cytotoxicity entry in [10] is reported as “cytotoxic”.
Take `CC(C)=CCCC1(C)C=Cc2c(O)c3c(c(CC=C(C)C)c2O1)OC12C(C3=O)C(N3CCN(c4ccccn4)CC3)C3CC1C(C)(C)OC2(C/C=C(/C)C(=O)N1CCN(C)CC1)C3=O` (stereo not shown) [Example 7, 9,10-Dihydro-10-[4-(2-pyridyl)piperazinyl]-gambogyl (N-Methylpiperazine)]: the “Caspase activity (Ratio)” value was 2.2 in series [1] (T-47D, 24 h incubation) and 1.6 in series [2]. In addition, the EC50 is 0.598 µM in series [1] (setting [12]) and over 10 µM in [2].
The corresponding values for `CC(C)=CCCC1(C)C=Cc2c(O)c3c(c(CC=C(C)C)c2O1)OC12C(C3=O)C(NCCN3CCOCC3)C3CC1C(C)(C)OC2(C/C=C(/C)C(=O)N1CCN(C)CC1)C3=O` (stereo not shown) [Example 6, 9,10-Dihydro-10-[2-(morpholinyl)ethylamino]-gambogyl (N-Methylpiperazine)] are 17, 4.1, 0.714 µM and 1.45 µM.
As to `CC(C)=CCCC1(C)C=Cc2c(O)c3c(c(CC=C(C)C)c2O1)OC12C(C3=O)C(N3CCOCC3)C3CC1C(C)(C)OC2(C/C=C(/C)C(=O)N1CCN(C)CC1)C3=O` (stereo not shown) [Example 4, 9,10-Dihydro-10-morpholinyl-gambogyl (N-Methylpiperazine)], the “Caspase activity (Ratio)” value in series [1] (T-47D, 24 h incubation) is given as 19; in series [2], 18. For the same compound, the EC50 in series [1] (setting [12]) was found to be 1.34 µM; in series [2] it was 3.98 µM.
In the case of `CC(C)=CCC[C@]1(C)C=Cc2c(O)c3c(c(CC=C(C)C)c2O1)O[C@]12C(=C[C@@H]4C[C@H]1C(C)(C)O[C@@]2(C/C=C(\C)C(=O)O)C4=O)C3=O` [isogambogic acid], the Cytotoxicity result in series [9] and in series [10] was “cytotoxic” each time.
Take `COC(=O)/C(C)=C\C[C@@]12OC(C)(C)[C@@H]3C[C@@H](C=C4C(=O)c5c(O)c6c(c(CC=C(C)C)c5O[C@]431)O[C@](C)(CCC=C(C)C)C=C6)C2=O` [C, Methyl gambogate]: in series [11] (0 h), the “Amount in biological media, 0 h” value worked out at 4. The “Amount in biological media, 2 h” value in series [11] (2 h) came out at 3. The “Amount in biological media, 18 h” value in series [11] (18 h) amounted to 26. For the same compound, the “Amount in biological media, 48 h” value in [11] (48 h) came to 48. Moreover, the “Amount in biological media, 90 h” value in series [11] (90 h) was determined as 64.
For `CC(C)=CCCC1(C)C=Cc2c(O)c3c(c(CC=C(C)C)c2O1)OC12C(C3=O)C(N3CCCCC3)C3CC1C(C)(C)OC2(C/C=C(/C)C(=O)N1CCN(C)CC1)C3=O` (stereo not shown) [Example 5, 9,10-Dihydro-10-piperidinyl-gambogyl (N-Methylpiperazine)], the “Caspase activity (Ratio)” value in series [1] (T-47D, 24 h incubation) was determined as 23; in series [2], 5.3. The EC50 in series [1] (setting [12]) was 0.846 µM; in [2], 2.33 µM.
In the case of `CC(C)=CCc1c2c(c(O)c3c1OC14C(=CC5CC1C(C)(C)OC4(C/C=C(\C)CO)C5=O)C3=O)C=CC(C)(C)O2` (stereo not shown) [isomorellinol], the Cytotoxicity entry in [9] (KB cell line) and in [10] (KB-V1 cell line) was “cytotoxic” in each case.

The record behind these values is patent US7176234B2, “Derivatives of gambogic acid and analogs as activators of caspases and inducers of apoptosis” (priority 2002, dated 2007).
